Assays:
[1] = system: thrombocytes; experiment: ADP-induced aggregation of thrombocytes after intravenous administration (in vivo); parameters: species or system rabbit
Protocol: The experiments were carried out on male rabbits of the “Chinchilla” breed having a mass of 2.7±0.3 kg. 18-24 hours prior to the experiment they were deprived of feed while preserving free access to water.
To obtain plasma enriched with thrombocytes, blood was taken from a cut of a marginal vein of the rabbit ear, the sample was stabilized with 3.8% of sodium citrate solution in a ratio of 9:1 and centrifuged at 200 g (1000 rev/min) for 10 minutes. The top supernatant layer enriched with thrombocytes was transferred by an automatic dropper into a silicone test tube and kept at 37° C. The plasma enriched with thrombocytes contained, on the average, […]. If this content exceeded the specified 3×10^8 blood platelets in 1 liter, this sample was diluted to the necessary concentration with plasma deprived of thrombocytes, which was obtained by centrifuging blood at 650 g during 10 minutes.
The measurements of the optical density of the samples were made on two-channel aggregometer of the “Chronolog” Company (USA). A flask containing 490 mkl of plasma rich with thrombocytes was placed in a device, into which a magnetic agitator covered with Teflon was lowered. The index of maximum amplitude of aggregation (MA) in percent of a fall of the plasma optical density under effect of the aggregation inductor was recorded. The control index MA of plasma was compared with the MA of plasma incubated for 3 minutes with different concentrations of the compounds: from 10^−3 to 10^−7 in vitro experiments or with plasma obtained 15, 30, 60 and 120 minutes after intravenous administration of different doses of the compounds in vivo experiments.
The process of aggregation of thrombocytes was recorded with the help of a computer; on the monitor screen the there were depicted curves reflecting changes of the optical density of the plasma enriched which was taken as a standard 100% compared to the optical density of the non-thrombocyte plasma taken for 0% content of thrombocytes.
The antiaggregative capability of compounds 2, 15, 21, 37, according to the invention was tested in experiments in vivo. Introduced to the test animals intravenously were an aggregation inductor ADP at a concentration of 10^−5 M was and then the compounds according to the invention. The doses of the compounds were in a range from 15 to 60 mg/kg.
For leveling the different effects of the compounds in different days due the ambient temperature, humidity and other parameters, 2 animals of each series were taken for experiments every day. Under “series” there is understood a group of 6 animals used for studying one of the doses of the compounds.
The blood for obtaining plasma enriched with thrombocytes was taken from marginal vein of the rabbit ear: in the control group—directly before introducing the tested compounds; in investigated groups—15 minutes after introducing these compounds and then after 30, 60, 120 minutes and so on up to the moment when the effect of suppression of aggregation disappeared.
The quantity of thrombocytes was counted before the experiment and at the end thereof in each plasma sample.

[2] = Morphine abstinence model: nitrites/nitrates NOX− in blood plasma, liver and brain; assay type: in vivo, rats Wistar; conditions: 20.0 mg/kg intramuscularly; for Nitrites in liver: control 0.260 ± 0.023; for Nitrites in brain: Cortex of cerebrum: control 4.63 ± 0.29; for Nitrites in brain: Mesencephalon: control 5.66 ± 0.19; for Nitrites in brain: Hypothalamus: control 6.57 ± 0.50; for Nitrites in blood plasma: control 18.30 ± 2.14
Protocol: The experiments were carried out on rats in series of 7 animals on each compound according to the invention. Non-morphinized animal with not administered with compounds according to the invention were used as a control group. […] Then the rats were decapitated, the blood from somnolent arteries was collected in test tubes with solution EDTA as an anticoagulant, centrifuged at 1500 g for 15 minutes at 4° C.
To estimate the intensity of metabolism of nitrogen oxide in rats, quantitative determination of stable metabolites of nitrogen oxide—nitrites and nitrates NOX^− in the blood plasma, supernatanates of the liver and thymus gland, a study was conducted by a spectrometric method, and in the brain supernatanates by a […] method.
(§1) The spectrometric method is based the reaction of nitrites with the Griss reagent (a mixture of 2% solution of sulfanilamide and 0.2% N-(1-naphthyl)ethylene diamine. At the first step the nitrite reacts with sulfanilamide with formation of diazonium salt, and then with the second component to form azo dye with an adsorption maximum at 540 nm. For reduction of nitrates into nitrites, a fermentative method was used with bacterial reductase nitrate (Grisham M. B. et al., 1995). The samples of plasma and supernathant of the liver deproteinizated at 100° C. for 5 minutes incubated for 30 minutes at 37° C. in 50.0 mM of HEPES pH 7.4 in the presence of 0.2 unit/ml of Aspergillus reductase nitrate, 5.0 mkM of FAD and 0.1 mM of NAD-Ph. At the end of the reaction lactate dehydrogenase and pyruvate were added for isolation of NAD-Ph interfering with the Griss reaction. Then the Griss reagent was added and after 10-minute incubation the light absorption of the samples was measured at 540 nm. To amount of NOX^− was calculated using sodium nitrate as a standard.
The fluorometric method is based on calculation of the nitrite level by the intensity fluorescence of 2,3-diaminonaphthotriazole, a product of reaction of 2,3-diaminonaphthalene (DAN) and nitrite in an acidic medium (Misko T. R., Schilling R. J., Salvemini D. et al. “A fluorometric assay for the measurement of nitrite of biological samples”. Anal. Biochem., 1993, v. 214, p. 11-16). The brain supernatants deproteinizated at 100° C. were placed in a nitrite regenerating system containing 0.125 unit/ml of nitrate reductases, 25 mkM NADPh and 25 mkM FAD prepared in a 20-mM Tris-HCl buffer with pH 7.6 and incubated for 30 minutes at 37° C. The lactate dehydrogenase/pyruvate system was used for oxidation of the NADPh. Then 316 mkM of the DAN solution in 0.62 M of hydrochloric acids were added and the mixture was incubated for 10 minutes in darkness.
280 mM of NaOH were added for stabilization of the fluorescence of the formed 2,3-diaminonaphthotriazole. The fluorescence intensity was measured in the spectrofluorimeter Hitachi F-3000 at a wavelength of excitation of 365 nm and an emission of 405 nm. The concentration of NOX^− in the brain was calculated by means of a standard solution of sodium nitrate.

[3] = Morphine abstinence model: thymus condition (mass, nitrites); assay type: in vivo, rats; conditions: for Nitrites in thymus supernatant: control 0.331 ± 0.041; for Thymus mass: control 230 ± 14
From the text: as §1
The effect of the compounds according to the invention on the condition of the thymus of the rats was also investigated: a control group, an experimental group of morphinized animals and an experimental group of animals were first morphinized and then injected with the compounds according to the invention. The experiment was carried out similarly to that described above.

[4] = 15.0 mg/kg intravenously, after 15 minutes, control 50.1 ± 1.7
[5] = 15.0 mg/kg intravenously, after 30 minutes, control 50.1 ± 1.7
[6] = 15.0 mg/kg intravenously, after 60 minutes, control 50.1 ± 1.7
[7] = 15.0 mg/kg intravenously, after 120 minutes, control 50.1 ± 1.7
[8] = 30.0 mg/kg intravenously, after 15 minutes, control 61.0 ± 1.3
[9] = 30.0 mg/kg intravenously, after 30 minutes, control 61.0 ± 1.3
[10] = 30.0 mg/kg intravenously, after 60 minutes, control 61.0 ± 1.3
[11] = 30.0 mg/kg intravenously, after 120 minutes, control 61.0 ± 1.3
[12] = 60.0 mg/kg intravenously, after 15 minutes, control 48.6 ± 1.3
[13] = 60.0 mg/kg intravenously, after 30 minutes, control 48.6 ± 1.3
[14] = 60.0 mg/kg intravenously, after 60 minutes, control 48.6 ± 1.3
[15] = 60.0 mg/kg intravenously, after 120 minutes, control 48.6 ± 1.3
[16] = Administration of morphine and compound

Row | SMILES | MA - drop of optical density [1, 4] [%] | MA - drop of optical density [1, 5] [%] | MA - drop of optical density [1, 6] [%] | MA - drop of optical density [1, 7] [%] | MA - drop of optical density [1, 8] [%] | MA - drop of optical density [1, 9] [%] | MA - drop of optical density [1, 10] [%] | MA - drop of optical density [1, 11] [%] | MA - drop of optical density [1, 12] [%] | MA - drop of optical density [1, 13] [%] | MA - drop of optical density [1, 14] [%] | MA - drop of optical density [1, 15] [%] | Nitrites in liver ([2]; Control + Compound) | Nitrites in brain: Cortex of cerebrum ([2]; Control + Compound) | Nitrites in brain: Mesencephalon ([2]; Control + Compound) | Nitrites in brain: Hypothalamus ([2]; Control + Compound) | Nitrites in blood plasma ([2]; Control + Compound) [mkmol/ml] | Nitrites in liver ([2]; Control + Morphine + compound) | Nitrites in brain: Cortex of cerebrum ([2]; Control + Morphine + compound) | Nitrites in brain: Mesencephalon ([2]; Control + Morphine + compound) | also measured
1 | Nc1cccc2c(=O)[nH][nH]c(=O)c12.[Na] [Compound 15, sodium salt of 5-amino-benzo[d]-3H-pyridazine-1,4-dione] | 42.8 ± 1.8 | 41.8 ± 1.5 | 45.6 ± 1.5 | 48.3 ± 2.3 | 43.2 ± 2.2 | 41.8 ± 1.9 | 37.8 ± 1.8 | 58.1 ± 1.7 | 43.1 ± 1.5 | 41.3 ± 1.5 | 44.7 ± 0.8 | 47.2 ± 1.6 | 0.259 ± 0.019 nmol/mg of protein | 4.31 ± 0.37 nmol/mg of protein | 6.65 ± 0.70 nmol/mg of protein | 6.77 ± 0.83 nmol/mg of protein | 14.39 ± 0.84 | 0.285 ± 0.02 nmol/mg of protein | 4.72 ± 0.37 nmol/mg of protein | 5.50 ± 0.43 nmol/mg of protein | Nitrites in brain: Hypothalamus ([2]; Control + Morphine + compound): 6.57 ± 0.88 nmol/mg of protein; Nitrites in blood plasma ([2]; Control + Morphine + compound): 13.91 ± 1.91 mkmol/ml; Nitrites in thymus supernatant ([3]; Administration of compounds): 0.407 ± 0.02 nmol/mg of protein; Thymus mass ([3]; Administration of compounds): 298 ± 25 mg; Nitrites in thymus supernatant [3, 16]: 0.383 ± 0.02 nmol/mg of protein; Thymus mass [3, 16]: 214 ± 12 mg
2 | O=c1[nH][nH]c(=O)c2c(Br)ncnc12.[K] [Compound 37, potassium salt of 4-bromine-pyrimido[4,5-D]-6H-pyridazine-5,8-dione] | 42.9 ± 1.6 | 41.9 ± 1.6 | 45.9 ± 1.6 | 48.7 ± 2.1 | 43.5 ± 2.0 | 42.0 ± 1.4 | 41.6 ± 1.4 | 58.4 ± 1.7 | 43.4 ± 1.8 | 42.4 ± 0.7 | 46.2 ± 2.0 | 47.3 ± 1.7 | 0.262 ± 0.018 nmol/mg of protein | 4.36 ± 0.24 nmol/mg of protein | 6.84 ± 0.56 nmol/mg of protein | 6.79 ± 0.92 nmol/mg of protein | 16.13 ± 1.80 | 0.274 ± 0.01 nmol/mg of protein | 4.77 ± 0.28 nmol/mg of protein | 5.63 ± 0.37 nmol/mg of protein | Nitrites in brain: Hypothalamus ([2]; Control + Morphine + compound): 6.52 ± 0.83 nmol/mg of protein; Nitrites in blood plasma ([2]; Control + Morphine + compound): 15.33 ± 0.87 mkmol/ml; Nitrites in thymus supernatant ([3]; Administration of compounds): 0.410 ± 0.01 nmol/mg of protein; Thymus mass ([3]; Administration of compounds): 263 ± 21 mg; Nitrites in thymus supernatant [3, 16]: 0.387 ± 0.01 nmol/mg of protein; Thymus mass [3, 16]: 228 ± 15 mg
